Source: PMC11089506 (Journal of Medicinal Chemistry, 2024)
Counter-ions that a name gives are not always drawn.

Key:
5-HT1B = target: T1, 5-HT1B (Homo sapiens, UniProt P28222); assay: radioligand competition binding, [3H]GR125743
T1 construct: Eurofins

GABAB(1a,2) receptor = target: T2, GABAB(1a,2) receptor (Homo sapiens, UniProt Q9UBS5); assay: radioligand competition binding, [3H]CGP-54626
T2 construct: Eurofins

Adenosine receptor A1 = target: T3, Adenosine receptor A1 (Homo sapiens, UniProt P30542); assay: radioligand competition binding, [3H]DPCPX
T3 construct: Eurofins

5-HT1A = target: T4, 5-HT1A (Homo sapiens, UniProt P08908); assay: radioligand competition binding, [3H]8-OH-DPAT
T4 construct: Eurofins
T4 sequence (P08908 1-422): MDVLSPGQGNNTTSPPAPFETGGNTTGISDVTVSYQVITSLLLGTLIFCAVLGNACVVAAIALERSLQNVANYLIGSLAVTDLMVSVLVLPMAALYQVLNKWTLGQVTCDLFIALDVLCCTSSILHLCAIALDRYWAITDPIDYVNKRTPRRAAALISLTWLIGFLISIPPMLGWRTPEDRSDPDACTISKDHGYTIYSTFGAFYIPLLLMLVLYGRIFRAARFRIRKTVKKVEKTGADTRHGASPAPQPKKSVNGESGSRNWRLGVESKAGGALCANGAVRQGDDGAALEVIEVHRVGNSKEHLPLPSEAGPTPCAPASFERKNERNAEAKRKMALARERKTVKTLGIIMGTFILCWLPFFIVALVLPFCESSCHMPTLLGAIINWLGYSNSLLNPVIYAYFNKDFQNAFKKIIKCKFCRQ

DAT = target: T5, DAT (Homo sapiens, UniProt Q01959); assay: radioligand competition binding, [3H]BTCP
T5 construct: Eurofins

Tachykinin receptor NK2 = target: T6, Tachykinin receptor NK2 (Homo sapiens, UniProt P21452); assay: radioligand competition binding, [125I]Neurokinin A
T6 construct: Eurofins (contract laboratory)

5-HT1D = target: T7, 5-HT1D (Rattus norvegicus, UniProt P28565); assay: radioligand competition binding, [3H]serotonin
T7 construct: Eurofins

M3 (muscarinic receptor) = target: T8, M3 (muscarinic receptor) (Homo sapiens, UniProt P20309); assay: radioligand competition binding, [3H]4-DAMP
T8 construct: Eurofins

Adenosine receptor A2A = target: T9, Adenosine receptor A2A (Homo sapiens, UniProt P29274); assay: radioligand competition binding, [3H]CGS-21680
T9 construct: Eurofins

Purinergic receptor P2X = assay: radioligand competition binding, [3H]α,β-Methylene-ATP; parameters: species or system rat
Thyroid hormone receptor = assay: radioligand competition binding, [125I]Triiodothyronine; parameters: species or system rat
[1] = target: T10, H3 (histaminergic receptor) (Homo sapiens, UniProt Q9Y5N1); assay: radioligand competition binding, [3H]N-α-methyl-histamine
T10 construct: Eurofins

[2] = target: Ca2+ Channel L-Type, (Dihydropyridine) (Rattus norvegicus, UniProt P22002); assay: biochemical; conditions: read-out: % inhibition of the specific radioligand binding
[3] = target: T11, H2 (histaminergic receptor) (Homo sapiens, UniProt P25021); assay: radioligand competition binding, [125I]APT
T11 construct: Eurofins

5-HT3 = target: T12, 5-HT3 (Homo sapiens, UniProt P46098); assay: radioligand competition binding, [3H]BRL 43694; conditions: read-out: % inhibition of the specific radioligand binding
T12 construct: Eurofins

Kainate receptor = assay: radioligand competition binding, [3H]Kainic acid; parameters: species or system rat
[4] = target: T13, D3 (dopaminergic receptor) (Homo sapiens, UniProt P35462); assay: radioligand competition binding, [3H]methyl-spiperone; conditions: read-out: % inhibition of the specific radioligand binding
T13 construct: Eurofins

[5] = target: T14, D4.4 (dopaminergic receptor) (Homo sapiens, UniProt P21917); assay: as above; conditions: read-out: % inhibition of the specific radioligand binding
T14 construct: Eurofins

[6] = target: T15, α2C (adrenergic receptor) (Homo sapiens, UniProt P18825); assay: radioligand competition binding, [3H]RX 821002
T15 construct: Eurofins

Phosphodiesterase = assay: radioligand competition binding, [3H]Rolipram; parameters: species or system rat
Endothelin receptor ETA = target: T16, Endothelin receptor ETA (Homo sapiens, UniProt P25101); assay: radioligand competition binding, [125I]Endothelin-1
T16 construct: Eurofins

5-HT5a = target: T17, 5-HT5a (Homo sapiens, UniProt P47898); assay: radioligand competition binding, [3H]LSD; conditions: read-out: % inhibition of the specific radioligand binding
T17 construct: Eurofins

Opioid receptor μ = target: T18, Opioid receptor μ (Homo sapiens, UniProt P35372); assay: radioligand competition binding, [3H]Diprenorphine (second line)
T18 construct: Eurofins

Ca2+ Channel N-Type = Ca2+ Channel N-Type (Rattus norvegicus, UniProt Q02294); assay: biochemical; format: binding
NET = target: T19, NET (Homo sapiens, UniProt P23975); assay: radioligand competition binding, [3H]nisoxetine
T19 construct: Eurofins

[7] = target: T20, D5 (dopaminergic receptor) (Homo sapiens, UniProt P21918); assay: radioligand competition binding, [3H]SCH 23390; conditions: read-out: % inhibition of the specific radioligand binding
T20 construct: Eurofins

human 5-HT2BR = target: T21, human 5-HT2BR (Homo sapiens, UniProt P41595); assay: Calcium No Wash PLUS assay, 5-HT2BR-HEK293 cells (Eurofins); format: cell-based; conditions: fluorescence-based Ca2+ imaging assay
T21 construct: host or cells: HEK293 (membrane homogenates)

Bradykinin receptor B1 = target: T22, Bradykinin receptor B1 (Homo sapiens, UniProt P46663); assay: radioligand competition binding, [3H](Des-Arg10, Leu9)-Kallidin
T22 construct: Eurofins

[8] = target: T23, Nicotinic acetylcholine receptor α3β4 (Homo sapiens, UniProt P30926+P32297); assay: radioligand competition binding, [125I]Epibatidine
T23 construct: Eurofins

Purinergic receptor P2Y = assay: radioligand competition binding, [35S]dATPαS; parameters: species or system rat
5-HT7 = target: T24, 5-HT7 (Homo sapiens, UniProt P34969); assay: radioligand competition binding, [3H]LSD
T24 construct: Eurofins

[9] = estimated from the % inhibition data
[10] = read-out: % inhibition of the specific radioligand binding

T8 sequence (P20309 whole entry): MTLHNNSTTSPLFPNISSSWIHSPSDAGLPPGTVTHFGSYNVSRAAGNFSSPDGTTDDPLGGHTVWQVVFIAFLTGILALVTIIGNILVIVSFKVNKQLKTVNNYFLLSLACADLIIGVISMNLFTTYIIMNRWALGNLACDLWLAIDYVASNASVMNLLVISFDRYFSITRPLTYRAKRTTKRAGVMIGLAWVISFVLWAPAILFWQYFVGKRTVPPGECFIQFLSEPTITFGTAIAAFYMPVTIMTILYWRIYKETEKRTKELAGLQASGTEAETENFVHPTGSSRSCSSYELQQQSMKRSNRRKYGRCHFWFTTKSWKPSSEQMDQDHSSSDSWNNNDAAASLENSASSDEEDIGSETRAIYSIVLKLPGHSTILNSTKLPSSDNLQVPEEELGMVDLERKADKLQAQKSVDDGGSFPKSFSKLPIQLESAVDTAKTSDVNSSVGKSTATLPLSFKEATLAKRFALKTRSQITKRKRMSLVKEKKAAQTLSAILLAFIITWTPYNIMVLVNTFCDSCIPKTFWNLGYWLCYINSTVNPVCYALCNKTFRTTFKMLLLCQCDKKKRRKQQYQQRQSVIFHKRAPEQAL
T24 sequence (P34969 whole entry): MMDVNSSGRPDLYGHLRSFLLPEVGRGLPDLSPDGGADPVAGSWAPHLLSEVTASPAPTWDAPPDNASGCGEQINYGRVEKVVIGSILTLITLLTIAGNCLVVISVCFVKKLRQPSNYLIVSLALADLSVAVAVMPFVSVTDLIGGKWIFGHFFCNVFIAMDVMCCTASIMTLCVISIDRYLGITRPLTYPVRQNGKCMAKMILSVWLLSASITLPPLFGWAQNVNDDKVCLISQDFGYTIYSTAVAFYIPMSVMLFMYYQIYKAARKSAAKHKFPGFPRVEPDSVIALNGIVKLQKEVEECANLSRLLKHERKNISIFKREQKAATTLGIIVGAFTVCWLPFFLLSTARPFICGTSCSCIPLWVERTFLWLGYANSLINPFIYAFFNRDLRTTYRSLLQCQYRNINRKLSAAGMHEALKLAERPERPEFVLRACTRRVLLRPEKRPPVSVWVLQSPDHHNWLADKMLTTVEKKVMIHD
T1 sequence (P28222 whole entry): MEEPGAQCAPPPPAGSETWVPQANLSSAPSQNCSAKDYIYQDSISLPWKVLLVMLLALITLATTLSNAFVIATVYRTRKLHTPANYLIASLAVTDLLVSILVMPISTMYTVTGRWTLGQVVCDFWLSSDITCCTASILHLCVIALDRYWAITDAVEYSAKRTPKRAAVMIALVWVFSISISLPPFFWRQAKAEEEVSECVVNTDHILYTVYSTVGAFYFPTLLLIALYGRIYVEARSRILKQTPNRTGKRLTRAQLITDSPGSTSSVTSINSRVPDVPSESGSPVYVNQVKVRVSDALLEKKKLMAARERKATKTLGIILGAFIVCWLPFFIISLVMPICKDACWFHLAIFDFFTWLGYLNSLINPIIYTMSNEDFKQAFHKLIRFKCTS
T7 sequence (P28565 whole entry): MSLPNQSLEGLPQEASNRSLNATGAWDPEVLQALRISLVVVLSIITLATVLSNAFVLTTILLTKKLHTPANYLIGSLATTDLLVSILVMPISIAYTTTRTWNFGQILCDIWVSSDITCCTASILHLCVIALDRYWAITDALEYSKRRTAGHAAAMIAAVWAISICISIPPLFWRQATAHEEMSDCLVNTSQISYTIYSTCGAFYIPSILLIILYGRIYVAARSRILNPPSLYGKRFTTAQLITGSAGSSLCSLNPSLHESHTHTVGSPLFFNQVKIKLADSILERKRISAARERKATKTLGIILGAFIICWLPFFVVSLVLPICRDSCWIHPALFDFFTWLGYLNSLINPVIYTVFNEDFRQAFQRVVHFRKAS
T22 sequence (P46663 whole entry): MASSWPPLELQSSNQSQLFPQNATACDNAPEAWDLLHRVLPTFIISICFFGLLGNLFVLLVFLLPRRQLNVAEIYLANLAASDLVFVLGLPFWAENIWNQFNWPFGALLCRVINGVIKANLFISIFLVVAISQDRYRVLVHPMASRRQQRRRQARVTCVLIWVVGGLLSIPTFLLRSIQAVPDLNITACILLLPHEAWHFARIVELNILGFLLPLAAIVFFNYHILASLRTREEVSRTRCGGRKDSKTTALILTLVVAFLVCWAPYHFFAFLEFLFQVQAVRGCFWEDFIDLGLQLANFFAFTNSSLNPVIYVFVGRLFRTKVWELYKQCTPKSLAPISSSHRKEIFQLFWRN
T6 sequence (P21452 whole entry): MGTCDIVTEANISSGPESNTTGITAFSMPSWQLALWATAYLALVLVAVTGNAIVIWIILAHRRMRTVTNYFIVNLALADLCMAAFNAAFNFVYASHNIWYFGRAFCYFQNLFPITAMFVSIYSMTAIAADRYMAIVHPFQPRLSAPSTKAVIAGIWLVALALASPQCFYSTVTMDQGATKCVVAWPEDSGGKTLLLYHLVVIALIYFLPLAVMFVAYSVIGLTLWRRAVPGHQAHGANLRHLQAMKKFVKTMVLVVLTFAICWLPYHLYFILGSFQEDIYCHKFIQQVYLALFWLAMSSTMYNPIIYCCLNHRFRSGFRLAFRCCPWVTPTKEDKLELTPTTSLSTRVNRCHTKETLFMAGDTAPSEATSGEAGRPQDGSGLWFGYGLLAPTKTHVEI
T10 sequence (Q9Y5N1 whole entry): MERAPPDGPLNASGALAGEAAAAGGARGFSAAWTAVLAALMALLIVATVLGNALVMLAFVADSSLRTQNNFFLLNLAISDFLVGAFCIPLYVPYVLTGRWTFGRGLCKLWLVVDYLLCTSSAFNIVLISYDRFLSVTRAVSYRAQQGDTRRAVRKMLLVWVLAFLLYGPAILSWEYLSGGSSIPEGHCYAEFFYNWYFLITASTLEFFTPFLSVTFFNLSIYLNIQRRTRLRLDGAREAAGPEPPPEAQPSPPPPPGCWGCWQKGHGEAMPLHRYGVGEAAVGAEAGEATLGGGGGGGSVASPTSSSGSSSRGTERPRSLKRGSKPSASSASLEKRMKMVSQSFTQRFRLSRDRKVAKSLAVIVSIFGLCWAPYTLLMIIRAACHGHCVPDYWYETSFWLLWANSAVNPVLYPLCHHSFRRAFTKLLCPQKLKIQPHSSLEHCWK
T5 sequence (Q01959 whole entry): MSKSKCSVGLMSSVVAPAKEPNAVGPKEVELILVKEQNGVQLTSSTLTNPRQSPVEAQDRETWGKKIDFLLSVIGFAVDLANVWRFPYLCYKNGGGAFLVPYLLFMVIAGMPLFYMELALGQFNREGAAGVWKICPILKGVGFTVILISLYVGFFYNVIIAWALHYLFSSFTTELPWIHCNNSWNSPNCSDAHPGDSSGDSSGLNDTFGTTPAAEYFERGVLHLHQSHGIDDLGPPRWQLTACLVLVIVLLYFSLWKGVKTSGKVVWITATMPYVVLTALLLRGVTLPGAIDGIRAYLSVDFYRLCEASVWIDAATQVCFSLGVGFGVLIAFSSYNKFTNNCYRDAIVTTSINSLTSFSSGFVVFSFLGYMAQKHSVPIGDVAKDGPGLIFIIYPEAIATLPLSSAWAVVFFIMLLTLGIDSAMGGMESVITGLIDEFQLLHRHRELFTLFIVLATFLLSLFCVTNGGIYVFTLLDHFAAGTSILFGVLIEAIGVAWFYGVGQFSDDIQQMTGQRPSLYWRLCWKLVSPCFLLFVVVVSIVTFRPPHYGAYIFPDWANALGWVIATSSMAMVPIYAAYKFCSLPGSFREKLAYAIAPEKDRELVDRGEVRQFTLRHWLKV
T11 sequence (P25021 whole entry): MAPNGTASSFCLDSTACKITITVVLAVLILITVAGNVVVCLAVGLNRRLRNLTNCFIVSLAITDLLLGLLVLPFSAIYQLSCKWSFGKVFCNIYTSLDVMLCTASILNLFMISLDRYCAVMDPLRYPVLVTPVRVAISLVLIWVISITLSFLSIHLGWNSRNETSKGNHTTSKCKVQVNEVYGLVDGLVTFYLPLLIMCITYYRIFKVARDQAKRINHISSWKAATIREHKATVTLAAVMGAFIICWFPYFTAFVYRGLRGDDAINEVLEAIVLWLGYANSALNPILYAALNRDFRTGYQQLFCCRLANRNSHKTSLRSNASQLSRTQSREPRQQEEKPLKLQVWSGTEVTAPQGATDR
T18 sequence (P35372 whole entry): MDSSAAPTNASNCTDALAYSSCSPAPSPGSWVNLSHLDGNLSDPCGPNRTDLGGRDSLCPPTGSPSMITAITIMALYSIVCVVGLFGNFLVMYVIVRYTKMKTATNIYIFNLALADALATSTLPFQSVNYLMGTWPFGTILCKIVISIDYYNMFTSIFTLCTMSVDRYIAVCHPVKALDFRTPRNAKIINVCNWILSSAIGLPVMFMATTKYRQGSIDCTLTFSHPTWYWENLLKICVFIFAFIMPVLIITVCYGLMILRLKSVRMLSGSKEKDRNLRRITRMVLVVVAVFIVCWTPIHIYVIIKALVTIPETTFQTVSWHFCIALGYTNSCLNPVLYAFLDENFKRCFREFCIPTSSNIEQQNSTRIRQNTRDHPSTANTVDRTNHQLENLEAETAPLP
T15 sequence (P18825 whole entry): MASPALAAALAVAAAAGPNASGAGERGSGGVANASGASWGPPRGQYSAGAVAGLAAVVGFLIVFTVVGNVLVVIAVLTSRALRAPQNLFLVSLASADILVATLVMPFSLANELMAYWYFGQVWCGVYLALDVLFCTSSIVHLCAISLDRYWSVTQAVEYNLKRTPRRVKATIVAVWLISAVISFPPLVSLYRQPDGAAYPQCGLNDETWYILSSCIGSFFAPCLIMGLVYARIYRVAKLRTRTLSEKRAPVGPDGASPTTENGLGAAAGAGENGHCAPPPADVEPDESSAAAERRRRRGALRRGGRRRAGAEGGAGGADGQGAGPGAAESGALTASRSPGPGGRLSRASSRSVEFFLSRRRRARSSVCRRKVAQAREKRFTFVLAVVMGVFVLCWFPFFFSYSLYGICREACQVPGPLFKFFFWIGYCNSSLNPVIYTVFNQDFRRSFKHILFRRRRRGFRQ

For `COc1cc(C(F)(F)F)c(OC)cc1[C@@H]1CCCNC1` [(S)-11, 3-(2,5-Dimethoxy-4-(trifluoromethyl)phenyl)piperidine Hydrochloride], which IC50 (5-HT1B; [9]) is on record?
Its IC50 is 1 to 10 µM.

And the inhibition at 1 µM (5-HT1B; [10])?
Its inhibition at 1 µM is 21%.

What about the inhibition at 10 µM (5-HT1B; [10]) of the same compound?
Its inhibition at 10 µM is 68%.

And the IC50 (GABAB(1a,2) receptor; [9])?
The IC50 was > 10 µM.

And the inhibition at 10 µM (GABAB(1a,2) receptor; [10])?
Its inhibition at 10 µM is 6%.

What about the IC50 (Adenosine receptor A1; [9]) of the same compound?
The IC50 was > 10 µM.

What about the inhibition at 10 µM (Adenosine receptor A1; [10]) of the same compound?
The inhibition at 10 µM was 4%.

What about the IC50 (5-HT1A; [9]) of the same compound?
Its IC50 is 0.1 to 1 µM.

What about the inhibition at 0.1 µM (5-HT1A; [10]) of the same compound?
Its inhibition at 0.1 µM is 20%.

What about the inhibition at 1 µM (5-HT1A; [10]) of the same compound?
Its inhibition at 1 µM is 64%.

What about the inhibition at 10 µM (5-HT1A; [10]) of the same compound?
Its inhibition at 10 µM is 90%.

What about the IC50 (DAT; [9]) of the same compound?
The IC50 was > 10 µM.

And the inhibition at 10 µM (DAT; [10])?
The inhibition at 10 µM was 12%.

What about the IC50 (Tachykinin receptor NK2; [9]) of the same compound?
Its IC50 is > 10 µM.

And the inhibition at 10 µM (Tachykinin receptor NK2; [10])?
The inhibition at 10 µM was 1%.

What about the IC50 (5-HT1D; [9]) of the same compound?
The IC50 was 0.1 to 1 µM.

And the inhibition at 0.1 µM (5-HT1D; [10])?
Its inhibition at 0.1 µM is 18%.

What about the inhibition at 1 µM (5-HT1D; [10]) of the same compound?
Its inhibition at 1 µM is 64%.

And the inhibition at 10 µM (5-HT1D; [10])?
The inhibition at 10 µM was 93%.

What about the IC50 (M3 (muscarinic receptor); [9]) of the same compound?
The IC50 was ~1 µM.

And the inhibition at 1 µM (M3 (muscarinic receptor); [10])?
Its inhibition at 1 µM is 41%.

What about the inhibition at 10 µM (M3 (muscarinic receptor); [10]) of the same compound?
Its inhibition at 10 µM is 90%.

And the IC50 (Adenosine receptor A2A; [9])?
The IC50 was > 10 µM.

What about the inhibition at 10 µM (Adenosine receptor A2A; [10]) of the same compound?
The inhibition at 10 µM was -19%.

What about the “% inhibition of the specific radioligand binding” value (shortened to “% inhibition”) (Purinergic receptor P2X; (S)-11 10 μM, n=1) of the same compound?
The value was -30%.

What about the IC50 (Purinergic receptor P2X; [9]) of the same compound?
The IC50 was > 10 µM.

What about the “% inhibition” value (Thyroid hormone receptor; (S)-11 10 μM, n=1) of the same compound?
The value was -1%.

And the IC50 (Thyroid hormone receptor; [9])?
The IC50 was > 10 µM.

And the IC50 [1, 9]?
Its IC50 is > 10 µM.

And the inhibition at 10 µM [1, 10]?
The inhibition at 10 µM was 11%.

And the inhibition at 10 µM [2]?
The inhibition at 10 µM was -6%.

What about the IC50 [3, 9] of the same compound?
The IC50 was > 10 µM.

What about the inhibition at 10 µM [3, 10] of the same compound?
Its inhibition at 10 µM is 10%.

What about the inhibition at 10 µM (5-HT3) of the same compound?
Its inhibition at 10 µM is 6%.

And the “% inhibition” value (Kainate receptor; (S)-11 10 μM, n=1)?
Its value is 9%.

And the IC50 (Kainate receptor; [9])?
The IC50 was > 10 µM.

What about the inhibition at 10 µM [4] of the same compound?
Its inhibition at 10 µM is 40%.

What about the inhibition at 10 µM [5] of the same compound?
Its inhibition at 10 µM is 9%.

What about the IC50 [6, 9] of the same compound?
Its IC50 is > 10 µM.

What about the inhibition at 10 µM [6, 10] of the same compound?
The inhibition at 10 µM was 36%.

And the “% inhibition” value (Phosphodiesterase; (S)-11 10 μM, n=1)?
Its value is 8%.

What about the IC50 (Phosphodiesterase; [9]) of the same compound?
The IC50 was > 10 µM.

What about the IC50 (Endothelin receptor ETA; [9]) of the same compound?
The IC50 was > 10 µM.

What about the inhibition at 10 µM (Endothelin receptor ETA; [10]) of the same compound?
The inhibition at 10 µM was 12%.

What about the inhibition at 10 µM (5-HT5a) of the same compound?
The inhibition at 10 µM was 4%.

What about the IC50 (Opioid receptor μ; [9]) of the same compound?
Its IC50 is > 10 µM.

And the inhibition at 10 µM (Opioid receptor μ; [10])?
The inhibition at 10 µM was 18%.

And the IC50 (Ca2+ Channel N-Type)?
Its IC50 is > 10 µM.

What about the inhibition at 10 µM (Ca2+ Channel N-Type; [10]) of the same compound?
Its inhibition at 10 µM is -5%.

What about the IC50 (NET; [9]) of the same compound?
The IC50 was > 10 µM.

What about the inhibition at 10 µM (NET; [10]) of the same compound?
Its inhibition at 10 µM is -4%.

What about the inhibition at 10 µM [7] of the same compound?
The inhibition at 10 µM was 26%.

What about the EC50 (human 5-HT2BR) of the same compound?
The EC50 was 0.19 µM.

What about the IC50 (Bradykinin receptor B1; [9]) of the same compound?
The IC50 was > 10 µM.

What about the inhibition at 10 µM (Bradykinin receptor B1; [10]) of the same compound?
Its inhibition at 10 µM is 12%.

What about the IC50 [8] of the same compound?
Its IC50 is ~10 µM.

What about the inhibition at 10 µM [8, 10] of the same compound?
Its inhibition at 10 µM is 51%.

What about the “% inhibition” value (Purinergic receptor P2Y; (S)-11 10 μM, n=1) of the same compound?
Its value is 2%.

What about the IC50 (Purinergic receptor P2Y; [9]) of the same compound?
The IC50 was > 10 µM.

And the IC50 (5-HT7; [9])?
The IC50 was 1 to 10 µM.

And the inhibition at 1 µM (5-HT7; [10])?
The inhibition at 1 µM was 17%.

And the inhibition at 10 µM (5-HT7; [10])?
Its inhibition at 10 µM is 62%.
